The numbers were not newly measured in article PMC8473701, which cites them from elsewhere.

The series is described as follows: not told.

For `CC1CCCC1`, the “log partition 1-octanol / water” value is listed as 3.37 log10 and the “log partition hexadecane / water” value is listed as 3.99 log10.

Turning to `CCC(C)C`, the “log partition aniline / water” value is reported as 2.880 log10 and the “log partition hexadecane / water” value is recorded as 3.76 log10.

On to `Cc1cnccn1`, for which the “log partition chloroform / water” value is listed as 1.04 log10, the “log partition hexadecane / water” value is -0.79 log10 and the “log partition octanol / water” value was 0.23 log10.

In the case of `CC(C)C`, the “log partition aniline / water” value is 2.488 log10 and the “log partition hexadecane / water” value was 3.11 log10.

With `COc1cccc(O)c1`, the “log partition chloroform / water” value is 0.77 log10, the “log partition hexadecane / water” value is -1.08 log10 and the “log partition octanol / water” value is 1.58 log10.

Take `CCCl`: the “log partition aniline / water” value is 1.481 log10 and the “log partition hexadecane / water” value was 1.22 log10.

`ClCCl`: the “log partition 1-octanol / water” value was 1.25 log10, the “log partition aniline / water” value is 1.562 log10, the “log partition chloroform / water” value was 2.00 log10 and the “log partition hexadecane / water” value is given as 1.06 log10. The “log partition octanol / water” value was 1.25 log10.
